4 molecules from patent US12410163B2, “Compounds as GLP-IR agonists” (Terns Pharmaceuticals, Inc., priority 2022, dated 2025) can be followed below.

Structures are written as SMILES.

For orientation: Cmax means the maximum level reached in the sampled fluid or tissue. What is called EC50 is the concentration that produces a half-maximal response. As usually defined, the AUC is the area under the concentration-time curve, a measure of exposure.

A short description of data set [1]: Rat pharmacokinetics. The format is in vivo. To be noted: male Sprague-Dawley rats, plasma, route not stated in table (IV or oral gavage 10 mL/kg of 0.3 or 0.6 mg/mL).
Data set [2] concerns the target T1, human GLP-1R receptor (Homo sapiens, UniProt P43220).
T1 construct: expressed in transfected cells
Nature of the data set: GLP-1R low expression cell assay (cAMP TR-FRET, CHO-K1_hGLP-1Rlow_clone10). The format is cell-based. To be noted: CHO-K1_hGLP-1Rlow_clone10 cells, percent activation relative to control GLP-1 peptide. As to the method:
Stable cell lines expressing high and low GLP-1R surface expression are generated in CHO-K1 cells transfected (Fugene 6) with a puromycin selectable DNA plasmid encoding human GLP-1R receptor (accession number: NM_002062.5) under control of an EF1A promoter. Transfected cells are seeded into 24-well plates (9,000 cells/well) containing complete medium and incubated in a humidified incubator at 37° C. with 5% carbon dioxide. After overnight incubation, medium is replaced with complete medium supplemented with puromycin (6 μg/mL) and refreshed every 2-3 days to select for stably transfected cells. Individual pools of selected cells are expanded prior to analysis for responsiveness to GLP-1 control peptide using a TR-FRET assay to detect cAMP (LANCE Ultra cAMP Assay, Perkin Elmer). Briefly, cells are collected in Versene solution, plated in 384-well plates (1,000 cells/well) and combined with serially diluted GLP-1R control peptide (10 nL) using an acoustic dispenser (ECHO). Plates are incubated for 30 minutes at 25° C. prior to the addition of EU-cAMP tracer (5 μL) and Ulight-anti-cAMP (5 μL) reagents to each well, followed by 15 minutes incubation at 25° C. TR-FRET signal is detected using an EnVision Multimode Plate Reader (excitation=320 nm; emission=615 and 655 nm). Dose-response curves are used to generate EC50 values as a measure of responsiveness to the GLP-1R control peptide. Selected cell lines are monitored for responsiveness over multiple passages to ensure stability. […] Briefly, GLP-1R expression is analyzed by flow cytometry using a fluorescein-labeled Exendin-4 peptide fluorescent probe (FLEX). Cells are harvested in Versene solution and washed 3-times with PBS+0.5% BSA before incubation with FLEX reagent (10 μM) for 2 hours at room temperature. After incubation, cells are washed 3-times in PBS+0.5% BSA before final resuspension in PBS prior to analysis by flow cytometry to measure FLEX mean fluorescence intensity (MFI) as a measure of GLP-1R expression on the cell surface.
For compound testing in the CHO-K1_hGLP-1Rlow_clone10 cell lines, cells are seeded in 384-well plates (1,000 cells/well). Test compounds are serially diluted in DMSO (10-point, 3-fold dilution), added to wells using an ECHO dispenser (10 nL/well) and plates are centrifuged for 1 min and agitated for 2 min at room temperature prior to 30-minute incubation at 25° C. After incubation, Eu-cAMP (5 μL) and Ulight-anti-cAMP (5 μL) reagents are added to each well, followed by centrifugation for 1 minute, agitation for 2 minutes at room temperature, and final incubation of the plates at 25° C. for 15 minutes. Plates are read using an EnVision microplate reader (excitation=320 nm; emission=615 and 655 nm). Dose-response curves are generated from duplicate wells based on percent activation calculated relative to a control GLP-1 peptide agonist that was run in parallel. EC50 values are determined by fitting percent activation as a function of compound concentration using the Hill equation (XLfit).
Stable cell lines expressing high and low GLP-1R surface expression were generated in CHO-K1 cells transfected (Fugene 6) with a puromycin selectable DNA plasmid encoding human GLP-1R receptor (accession number: NM_002062.5) under control of an EF1A promoter. Transfected cells were seeded into 24-well plates (9,000 cells/well) containing complete medium and incubated in a humidified incubator at 37° C. with 5% carbon dioxide. After overnight incubation, medium was replaced with complete medium supplemented with puromycin (6 μg/mL) and refreshed every 2-3 days to select for stably transfected cells. Individual pools of selected cells were expanded prior to analysis for responsiveness to GLP-1 control peptide using a TR-FRET assay to detect cAMP (LANCE Ultra cAMP Assay, Perkin Elmer).

Data set [3] is described as follows: Rat pharmacokinetics. The format is in vivo. On the set-up: AUC: concentration or dose not given beside the values. To be noted: male Sprague-Dawley rats, plasma, route not given; for half-life: read-out: Rat T1/2 (converted). As to the method:
Intravenous dosing: Compounds were formulated at 0.5 mg/mL in a solution comprising 5% polyethylene glycol 400 and 95% (12% (w/v) sulfobutyl-β-cyclodextrin in water) (v/v). Formulated compounds were sterile filtered through a 0.22 micron filter before dosing. Compounds were administered to male, 7-11-week-old Sprague-Dawley rats by jugular vein cannula infusion over 30 minutes at a dose of 1 mg/kg. […]
Sample collection: Blood collections of about 0.2 mL per time point were performed from jugular vein or other suitable site of each animal, into pre-chilled commercial EDTA-K2 tubes and placed on wet ice until centrifugation. Blood samples were processed for plasma by centrifugation at approximately 4° C., 3,200 g for 10 min. Plasma was collected and transferred into pre-labeled 96 well plate or polypropylene tubes, quick frozen over dry ice and kept at −60° C. or lower until LC-MS/MS analysis.
Data analysis: Plasma concentration versus time data was plotted in graph and analyzed by non-compartmental approaches using the Phoenix WinNonlin 6.3 software program. Related PK parameters were calculated according to dosing route, e.g., CL, Vdss and C0 for intravenous administration, Cmax, Tmax or % F for extravascular administration, and T1/2, AUC(0-t), AUC(0-inf), MRT(0-t), MRT(0-inf) for all routes.

Data set [4] in a line: Metabolic stability in hepatocytes. To be noted: cryopreserved human hepatocytes (suspension), 1×10^6 cells/mL. Format: in vitro ADME. As for the experimental part: Test compounds are incubated in human hepatocytes and stability is assessed from the substrate […] approach. Test compounds are dissolved in dimethyl sulfoxide (DMSO) to create a 10 mM Stock, and then further diluted to create a 1000× Working Stock of 1 mM with DMSO in 96-well plates for test compounds and the positive control (midazolam). Vials containing cryopreserved hepatocytes are removed from the liquid nitrogen tank and immediately immersed in a 37° C. water bath. The vials are shaken gently until the contents had thawed and were then immediately emptied into 48 mL of pre-warmed HT Medium in a 50 mL conical tube. Cells remaining in the vial are resuspended with 1.0 mL of pre-warmed HT Medium and added to the conical tube. The tube is capped and then gently inverted several times to resuspend the hepatocytes. The cell suspension is centrifuged at 50×g at room temperature for 5 minutes and the supernatant discarded. The cell pellet is loosened by gently swirling the centrifuge tube and is re-suspended in 4 mL of warm Dulbecco's Modified Eagle medium (DMEM). Cell density is determined by a cell counter by Nexcelom, and DMEM medium is added to obtain a target density of 1×10^6 cells/mL. The assay is carried out in 96-well microtiter plates. Test Compounds are incubated at 1 μM with 1×10^6 cells/mL hepatocytes in DMEM for 0, 30, 60, 120 and 240 minutes. The incubation is carried out with gentle shaking at 37° C. under a humid atmosphere of 95% air/5% CO2. The volume of the incubation mixture is 37 μL with a final 0.1% DMSO. At each of the time points, the incubation is stopped by adding 150 μL quenching solution (100% acetonitrile, 0.1% formic acid containing bucetin as an internal standard for positive ESI mode). Subsequently, the mixtures are vortexed for 20 min and centrifuged at 4,000 RPM at 10° C. The supernatant (80 μL) is transferred to a clean 96-well plate and analyzed by LC-MS/MS. Midazolam at 1 μM with a final 0.1% DMSO is included as a positive control to verify assay performance. The percent parent remaining, intrinsic and predicted hepatic clearance and t1/2 are calculated. All samples are analyzed by LC-MS/MS using an AB Sciex API 4000 instrument, coupled to a Shimadzu LC-20AD LC Pump system. Separation is achieved using a Waters Atlantis T3 dC18 reverse phase HPLC column (20 mm×2.1 mm) at a flow rate of 0.5 mL/min. The mobile phase consisted of 0.1% formic acid in water (solvent A) and 0.1% formic acid in 100% acetonitrile (solvent B). Elution conditions are detailed below.
The ion optics of each test compound are optimized for their declustering potential (DP), […] (CE), collision-cell exit potential (CXP) and used in a selected ion monitoring experiment in the positive ion mode. The peak area ratio of each test compound to internal standard is then evaluated for stability. The extent of metabolism is calculated based on the disappearance of the test compound, compared to its initial concentration. The initial rates of clearance of the test compound are calculated using the linear regression plot of semi-log % remaining of the compound versus time. The elimination rate constant (k) of the linear regression plot is then used to determine t1/2 and the intrinsic clearance (CLint) using the following formula, where Chepatocyte (million cells/mL) is the cell density of the incubation: k=−slope t1/2=0.693/k CLint=k/Chepatocyte
Test compounds were incubated in human hepatocytes and stability was assessed from the substrate […] approach. Test compounds were dissolved in dimethyl sulfoxide (DMSO) to create a 10 mM Stock, and then further diluted to create a 1000× Working Stock of 1 mM with DMSO in 96-well plates for test compounds and the positive control (midazolam). Vials containing cryopreserved hepatocytes were removed from the liquid nitrogen tank and immediately immersed in a 37° C. water bath. […]

T1 sequence (P43220 24-463): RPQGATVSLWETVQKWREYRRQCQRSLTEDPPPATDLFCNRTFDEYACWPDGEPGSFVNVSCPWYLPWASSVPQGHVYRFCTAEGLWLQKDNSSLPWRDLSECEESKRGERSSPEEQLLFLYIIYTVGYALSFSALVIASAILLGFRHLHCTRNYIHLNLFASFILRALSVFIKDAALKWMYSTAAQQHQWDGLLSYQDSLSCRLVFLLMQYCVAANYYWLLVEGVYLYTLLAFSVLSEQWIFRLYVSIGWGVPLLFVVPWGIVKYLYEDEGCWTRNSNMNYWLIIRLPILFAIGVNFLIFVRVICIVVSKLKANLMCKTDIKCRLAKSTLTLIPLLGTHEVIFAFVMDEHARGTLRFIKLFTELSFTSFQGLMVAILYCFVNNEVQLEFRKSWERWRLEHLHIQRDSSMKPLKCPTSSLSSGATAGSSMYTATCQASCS

In data set [1], `C[C@]1(c2ccc(C#N)cc2F)Oc2cccc(N3CCN(Cc4nc5ccc(C(=O)O)cc5n4Cc4cncs4)[C@H]4C[C@H]43)c2O1` [Compound 36, 2-((5-(2-(4-Cyano-2-fluorophenyl)-2-methylbenzo[d][1,3]dioxol-4-yl)-2,5-diazabicyclo[4.1.0]heptan-2-yl)methyl)-1-(thiazol-5-ylmethyl)-1H-benzo[d]imidazole-6-carboxylic Acid] gave a Cmax of 19.3 ± 2.7 ng/mL. For the same molecule, the EC50 in data set [2] lay in the range of 5 to 50 nM. In data set [3], the AUC was 20.7 ± 12.6 ng·h/mL and the half-life is 1.8 h.

Consider `C[C@@]1(c2ccc(C#N)cc2F)Oc2cccc(N3CCN(Cc4nc5ccc(C(=O)O)cc5n4Cc4cncs4)[C@@H]4C[C@@H]43)c2O1` [Compound 37, 2-((5-(2-(4-Cyano-2-fluorophenyl)-2-methylbenzo[d][1,3]dioxol-4-yl)-2,5-diazabicyclo[4.1.0]heptan-2-yl)methyl)-1-(thiazol-5-ylmethyl)-1H-benzo[d]imidazole-6-carboxylic Acid], for which the highest level in data set [1] (Cmax) was 20 ± 7.7 ng/mL. The EC50 in data set [2] was below 5 nM. The same molecule yielded an AUC in data set [3] of 15.8 ± 7.6 ng·h/mL.

Turning to `C[C@]1(c2ccc(C#N)cc2F)Oc2cccc(N3CCN(Cc4nc5ccc(C(=O)O)cc5n4Cc4cncs4)[C@@H]4C[C@@H]43)c2O1` [Compound 38, 2-((5-(2-(4-Cyano-2-fluorophenyl)-2-methylbenzo[d][1,3]dioxol-4-yl)-2,5-diazabicyclo[4.1.0]heptan-2-yl)methyl)-1-(thiazol-5-ylmethyl)-1H-benzo[d]imidazole-6-carboxylic Acid], in data set [1], the highest level (Cmax) was 58.3 ± 9.74 ng/mL. This molecule also showed an EC50 in data set [2] above 100 nM. In data set [3], the AUC was found to be 109 ± 21.5 ng·h/mL and the half-life was 1.6 h.

Regarding `N#Cc1ccc(COc2cccc(C3CCN(Cc4nc5ccc(C(=O)O)cc5n4C[C@@H]4CCO4)CC3)n2)c(F)c1` [Reference Compound B, reference compound], the half-life at 1 μM in data set [4] (0-240 min, read-out: hHep t1/2) was found to be 2.6 h. Also, the CLint scaled at 1 μM in data set [4] (intrinsic clearance, read-out: hHep CLint) worked out at 15.5 mL/min/kg.
